These results are taken from patent US20080280906A1, “Imidazolyl-Pyrimidine Compounds for Use in the Treatment of Proliferative Disorders” (priority 2005, published 2008).

Structures are written as SMILES.

A word on the IC50: it is the concentration at which inhibition is half-maximal.

For the experiment, the target named is T1, CDK2/Cyclin E (Homo sapiens, UniProt P24941).
T1 construct: The open reading frames of CDK2 and Cyclin E were isolated by reverse transcriptase-PCR; made in house; host or cells: SF21 (Spodoptera frugiperda) insect cells, baculovirus co-infection
Briefly: in vitro kinase assay, Scintillation Proximity Assay (SPA), [γ-33-P]-ATP incorporation into GST-Rb. In kind it is biochemical. As to conditions: GST-Rb substrate, 0.2 μM ATP, 60 minutes room temperature, read-out: CDK2 inhibitory activity IC50. The method, then: The compounds were tested in an in vitro kinase assay in 96 well format using Scintillation Proximity Assay (SPA—obtained from Amersham) for measuring incorporation of [γ-33-P]-Adenosine Triphosphate into a test substrate (GST-Retinoblastoma protein; GST-Rb). In each well was placed the compound to be tested (diluted in DMSO and water to correct concentrations) and in control wells either roscovitine as an inhibitor control or DMSO as a positive control. […]
The plates were sealed with Topseal-S plate sealers, left for two hours then spun at 2500 rpm, 1124×g., for 5 minutes. The plates were read on a Topcount for 30 seconds per well. […]
E. coli paste was resuspended in 10 ml/g of NETN buffer (50 mM Tris pH 7.5, 120 mM NaCl, 1 mM EDTA, 0.5% v/v NP-40, 1 mM PMSF, 1 ug/ml leupeptin, 1 ug/ml aprotinin and 1 ug/ml pepstatin) and sonicated for 2×45 seconds per 100 ml homogenate. […] The final product was analysed by Sodium Dodeca Sulfate (SDS) PAGE (Polyacrylamide gel) using 8-16% Tris-Glycine gels (Novex, San Diego, USA).
The open reading frames of CDK2 and Cyclin E were isolated by reverse transcriptase-PCR using HeLa cell and activated T cell mRNA as a template and cloned into the insect expression vector pVL1393 (obtained from Invitrogen 1995 catalogue number: V1392-20). […]

Regarding `Cc1ncc(-c2ccnc(Nc3ccc(C(=O)N4CCOCC4)cc3)n2)n1C(C)C` [Example 14], the concentration for half-maximal inhibition (IC50) was found to be 3 nM.
